Test results taken from ChEMBL document CHEMBL1821596, “Isolation and structural identification of a direct-acting mutagen derived from N-nitroso-N-methylpentylamine and Fenton's reagent with copper ion” (Bioorg Med Chem, 2011).

How the values were obtained:
Assay type in all cases: toxicity, organism-based
Settings in all cases: salmonella enterica subsp. enterica serovar typhimurium
Salmonella typhimurium [1] = experiment: Mutagenic activity in Salmonella Typhimurium TA1535 at 100 uM after 2 hrs by plate-incorporating method in presence of H2O2
Salmonella typhimurium [2] = experiment: Mutagenic activity in Salmonella Typhimurium TA1535 at 100 uM after 2 hrs by plate-incorporating method in presence of Fe2+-Cu2+-H2O2 and nitric oxide
Salmonella typhimurium [3] = experiment: Mutagenic activity in Salmonella Typhimurium TA1535 at 100 uM after 2 hrs by plate-incorporating method in presence of Fe2+-H2O2
Salmonella typhimurium [4] = experiment: Mutagenic activity in Salmonella Typhimurium TA1535 at 100 uM after 2 hrs by plate-incorporating method in presence of Cu2+-H2O2
Salmonella typhimurium [5] = experiment: Mutagenic activity in Salmonella Typhimurium TA1535 at 100 uM after 2 hrs by plate-incorporating method in presence of Cu2+-Fe2+
Salmonella typhimurium [6] = experiment: Mutagenic activity in Salmonella Typhimurium TA1535 at 100 uM after 2 hrs by plate-incorporating method in presence of Fe2+-Cu2+-H2O2
Salmonella typhimurium [7] = experiment: Mutagenic activity in Salmonella Typhimurium TA1535 at 100 uM after 2 hrs by plate-incorporating method

Row | SMILES | Activity (Salmonella typhimurium [1]) | Activity (Salmonella typhimurium [2]) | Activity (Salmonella typhimurium [3]) | Activity (Salmonella typhimurium [4]) | Activity (Salmonella typhimurium [5]) | Activity (Salmonella typhimurium [6]) | Activity (Salmonella typhimurium [7])
1 | CCCCCN(C)N=O | Non-toxic | Toxic | Non-toxic | Toxic | Non-toxic | Toxic | –
2 | CCC1([N+](=O)[O-])CCN=[N+]1[O-] (configuration not stated) | – | – | – | – | – | – | Toxic
